Columns and labels:
B16/F0 cells = experiment: Tumor-cell uptake in the presence of DTG; format: cell-based, murine; conditions: DTG 90 μM, 30 min prior, 37° C.
From the text: J. Labelled Compd. Radiopharm. 1994, 35, 242-244; Vilner, B. J.; John, C. S.; Bowen, W. D. Sigma-I and Sigma-2 Receptors Are Expressed in a Wide Variety of Human and Rodent Tumor Cell Lines. Cancer Res. 1995, 55, 408-413; and John, C. S.; Vilner, B. J.; Gulden, M. E.; Efange, S. M. N.; Langason, R. B.; Moody, T. W.; Bowen, W. D. Synthesis and Pharmacological Characterization of 4-[^125I]-N-(N-Benzylpiperidin-4-yl)-4-iodobenzamide: A High Affinity σ Receptor Ligand for Potential Imaging of Breast Cancer. […] Pre-incubation of the tumor cells with DTG (90 μM), 30 min prior to the uptake experiments with the ^99mTc-complexes, yields a lower tumor-cell uptake for complexes Tc-(Compound A) (29% less), Tc-(Compound C) (33% less), and Tc-(Compound D) (32% less) at 37° C. (FIG. 4). Additional dose-response experiments conducted with intact B16/F0 cells at 37° C. with Tc-(Compound C) and DTG as the inhibitor (FIG. 3) show a DTG concentration-dependent decrease in the uptake of the complex.
The effect of the inhibitor DTG on cell uptake of these complexes was studied by addition of the inhibitor at various concentrations to the cell suspension 30 min prior to addition of the ^99mTc-complexes. Fresh DTG stock solutions were made by dissolving DTG (3.0 mg, 12.5 μmol) in 0.38 mL PBS and 0.12 mL hydrochloric acid (0.1 N) and subjecting the mixture to ultrasound until a clear solution was obtained, followed by the addition of 0.50 mL FBS to produce a neutral solution at pH 7.4. The stock solutions were diluted by an appropriate amount of S-MEM, and aliquots between 5 μL and 25 μL were added to the cell suspension such that the final concentration of DTG was between 0.02 μM and 120 μM in a total cell suspension volume of 350 μL.

B16/F0 murine melanoma = experiment: In-vivo tumor uptake and biodistribution; set-up: species or system C57B16 mice; conditions: mouse, in vivo
Method: In-Vivo Tumor Uptake. To study the tumor uptake of ^99mTc-complexes, Tc-(Compound A-D and J-K), in vivo, biodistribution experiments at 1 h and 6 h after their administration were carried out in C57B16 mice with palpable B16 melanoma nodules. The biodistribution data including melanoma/nontumor (M/NT) ratios for selected organs are summarized in Table 4 and 5 as percentage injected dose per gram ([…]).
Animal Studies. All animal experiments were performed in compliance with the Principles of Laboratory Animal Care (NIH publication #85-23, revised 1985). Biodistribution studies and tumor-uptake measurements were performed in C57B16 mice (15 to 20 g) bearing the B16/F0 murine melanoma on the hind limb. See for example the studies described in, which are hereby incorporated by reference, Brandau, W.; Niehoff, T.; Pulawski, P.; Jonas, M.; Dutschka, K.; Sciuk, J.; Coenen, H. H.; Schober, O. Structure Distribution Relationship of Iodine-123-Iodobenzamides as Tracers for the Detection of Melanotic Melanoma. J. Nucl. Med. 1996, 37, 1865-1871; Mohanmmed, A.; Nicholl, C.; Titsch, U.; Eisenhut, M. Radiojodinated N-(Alkylaminoalkyl)-Substituted 4-Methoxy-, 4-Hydroxy-, and 4-Aminobenzamides: Biological Investigations for the Improvement of Melanoma-Imaging Agents. Nucl. Med. Biol. 1997, 24, 373-380; Titsch, U.; Mohammed, A.; Wagner, S.; Oberdorfer, F.; Eisenhut, M. Syntheses of N-(2-Diethylaminoethyl)benzamides Suitable for ^99mTc Complexation. J. Labelled Compd. Radiopharm. 1997, 40, 416-418; Dittmann, H.; Coenen, H. H.; Zölzer, F.; Dutschka, K.; Brandau, W.; Streffer, C. In Vitro Studies on the Cellular Uptake of Melanoma Imaging Aminoalkyl-iodobenzamide Derivatives (ABA). Nucl. Med. Biol. 1999, 26, 51-56; and Michelot, J. M.; Moreau, M. F. C.; Veyre, A. J.; Bonafous, J. F.; Bacin, F. J.; Madelmont, J. C.; Bussiere, F.; Souteyrand, P. A.; Mauclaire, L. P.; Chossat, F. M.; Papon, J. M.; Labarre, P. G.; Kauffmann, Ph.; Plagne, R. J. Phase II Scintigraphic Clinical Trial of Malignant Melanoma and Metastases with Iodine-123-N-(2-Diethylaminoethyl 4-Iodobenzamide). J. Nucl. Med. 1993, 34, 1260-1266. The tumor cells (B16/F0), obtained from ATCC, were washed with PBS and transplanted subcutaneously on the left hind flank by an inoculation of 0.5×10^6 cells (0.1 mL). Ten to 14 days later the animals developed palpable tumor nodules 3 to 5 mm in diameter. The biodistribution studies were carried out by tail-vein injection of 25 to 30 μCi (0.05 to 0.1 mL) of the ^99mTc-labeled complexes Tc-(Compound A-D, H, J, K or M). At the designated time after tail-vein administration, the animals were weighed and sacrificed. The organs and tumors were harvested and, when appropriate, blotted dry, weighed, and counted in a gamma counter along with technetium-99m standards of the injected dose. The results are expressed as % ID/g tissue (Table 4 and 5)

CCN(CC)CCN1CC[S][99Tc]2(=[O])[S]CC[N]2C(=O)C1 (centres unmarked) [Tc-(Compound A)]
lower tumor-cell uptake after pre-incubation with DTG (B16/F0 cells): 29%

CCCCN(CCCC)CCN1CC[S][99Tc]2(=[O])[S]CC[N]2C(=O)C1 (centres unmarked) [Tc-(Compound B)]
mel/lung ratio (B16/F0 murine melanoma): 2.1

— US7321027B2, “Small technetium-99m and rhenium labeled agents and methods for imaging tumors” (President and Fellows of Harvard College, priority 2000, dated 2008)
